Publication PMC2246479, “A phase 1 and pharmacokinetic study of didox: a ribonucleotide reductase inhibitor” (British Journal of Cancer, 1988)

Legend:
[1] = test system: pools of deoxyribonucleotides; conditions: cited from earlier work
ribonucleotide reductase = conditions: cited from earlier work
metastatic carcinoma = assay: Clinical response in the phase 1 study; format: in vivo, human; conditions: 34 patients, any dosage level
L1210 leukaemia = test system: L1210 leukaemia; parameters: method as in Van't Riet et al., 1979; conditions: L1210 leukaemia bearing female mice; ref Van't Riet et al., 1979; cited from earlier work
[2] = in vivo
[3] = parameters: method as in Van't Riet, personal communication; conditions: rats; ref Van't Riet, personal communication; cited from earlier work
murine tumours = test system: murine tumours; parameters: method as in Elford et al., 1984; conditions: ref Elford et al., 1984; cited from earlier work
NCI tumour panel = test system: NCI tumour panel; parameters: method as in Elford & Van't Riet, 1985; conditions: ref Elford & Van't Riet, 1985; cited from earlier work
a number of cell lines = conditions: continuous drug exposure, no reference given; cited from earlier work
mice = conditions: single dose, ref CRC Sponsored Toxicity Report, 1984; cited from earlier work
[4] = test system: patients with unresponsive metastatic carcinoma; conditions: in vivo

For `NC(=O)NO` [hydroxyurea, reference compound], which Deoxyribonucleotide pools depleted ([1]; ref Thelander & Reichard 1979) is on record?
The Deoxyribonucleotide pools depleted was “only depleted pools of dGTP and dATP”.

What about the “Inhibition of ribonucleotide reductase in vitro” value (ribonucleotide reductase; ref Elford, 1968) of the same molecule?
The value was “weak inhibitor”.

For `O=C(NO)c1ccc(O)c(O)c1` [didox, N,3-4 trihydroxy-benzamide], which “Depletion of the pools of all deoxyribonucleotides” value ([1]; ref Elford et al., 1981) is on record?
Its value is “over 50%”.

And the Clinical responses (metastatic carcinoma)?
Its Clinical responses is “No clinical responses”.

And the Anti-neoplastic activity (L1210 leukaemia)?
Its Anti-neoplastic activity is “anti-neoplastic activity”.

What about the “Steady state volume of distribution” value ([2]; human) of the same molecule?
Its value is 27.9 ± 6.2 lm-2.

What about the “Total body Clearance” value ([2]; human) of the same molecule?
The value was 0.71 ± 0.19 Imin- 1 m-2.

And the t1/2 alpha ([2]; human)?
The t1/2 alpha was 5.2 min.

And the t1/2 beta ([2]; human)?
Its t1/2 beta is 41.3 min.

And the “Time to peak level of didox after injection” value ([2]; human, iv)?
Its value is no more than 5 min.

What about the “Administered dose excreted unchanged in the urine” value ([2]; iv) of the same molecule?
The value was “Less than 10%”.

And the “Time within which the majority of urinary excretion occurred” value ([2]; iv)?
The value was no more than 6 h.

What about the Major metabolites formed [3] of the same molecule?
The Major metabolites formed was 3,4-dihydroxybenzamide, 3-hydroxy-4-methoxybenzo- hydroxamic acid and 3-methoxy-4-hydroxy- benzohydroxamic acid.

And the “Interaction with doxorubicin and cyclophosphamide” value (murine tumours)?
Its value is “act synergistically”.

And the IC50 (ribonucleotide reductase; enzyme study, no reference given, read-out: Concentration causing 50% inhibition of the target enzyme)?
The IC50 was 30 µM.

And the “Inhibition of ribonucleotide reductase compared to hydroxyurea” value (ribonucleotide reductase; ref Elford et al., 1979)?
The value was “greater inhibition”.

And the “Activity in the NCI tumour panel” value (NCI tumour panel)?
The value was “active”.

What about the “Growth inhibitory concentration in vitro” value (a number of cell lines) of the same molecule?
Its value is “up to 100 uM”.

And the LD10 (mice)?
The LD10 was 643 mg/kg.

And the “Maximum tolerated dose / dose that can be safely given” value ([4]; human, iv)?
The value was 6 g m-2.

What about the “Patients with severe diarrhoea (grade 4)” value [4] of the same molecule?
The value was 2 patients.

And the “Total white cell count after didox” value [4]?
Its value is > 20 x 109 1-.

And the “Dose above which severe nausea and vomiting almost universal” value ([4]; iv)?
Its value is “above 7 g m- 2”.

And the “Dose at which dose limiting toxicity was encountered” value ([4]; iv)?
Its value is 7.5 g m-2.

What about the “Dose at which minor toxicity was initially noted” value ([4]; iv) of the same molecule?
Its value is 2,304 mg m 2.
